In PubChem BioAssay (NCI):
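Interpolation was linear, between the two tested concentrations surrounding the appropriate level; five concentrations were tested over 48 hours in 96-well plates. At the GI50, growth is halved. TGI is the concentration that stops growth completely.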

Tests used:
Test in all cases: NCI-60 cell line screen, 48 h
[1] = tested on: 786-0 renal
[2] = tested on: A498 renal
[3] = tested on: A549 NSCLC
[4] = tested on: ACHN renal
[5] = tested on: BT-549 breast
[6] = tested on: CAKI-1 renal
[7] = tested on: CCRF-CEM leukemia
[8] = tested on: COLO 205 colon
[9] = tested on: DU-145 prostate
[10] = tested on: EKVX NSCLC
[11] = tested on: HCC-2998 colon
[12] = tested on: HCT-116 colon
[13] = tested on: HCT-15 colon
[14] = tested on: HL-60(TB) leukemia
[15] = tested on: HOP-62 NSCLC
[16] = tested on: HOP-92 NSCLC
[17] = tested on: HS 578T breast
[18] = tested on: HT29 colon
[19] = tested on: IGROV1 ovarian
[20] = tested on: K-562 leukemia
[21] = tested on: KM12 colon
[22] = tested on: LOX IMVI melanoma
[23] = tested on: M14 melanoma
[24] = tested on: MCF7 breast
[25] = tested on: MDA-MB-231 breast
[26] = tested on: MDA-MB-435
[27] = tested on: MOLT-4 leukemia
[28] = tested on: NCI-H226 lung
[29] = tested on: NCI-H460 lung
[30] = tested on: NCI-H522 lung
[31] = tested on: NCI/ADR-RES ovarian
[32] = tested on: OVCAR-3 ovarian
[33] = tested on: OVCAR-4 ovarian
[34] = tested on: OVCAR-5 ovarian
[35] = tested on: OVCAR-8 ovarian
[36] = tested on: PC-3 prostate
[37] = tested on: RPMI-8226 leukemia
[38] = tested on: RXF 393 renal
[39] = tested on: SF-268 CNS
[40] = tested on: SF-295 CNS
[41] = tested on: SF-539 CNS
[42] = tested on: SK-MEL-2 melanoma
[43] = tested on: SK-MEL-28 melanoma
[44] = tested on: SK-MEL-5 melanoma
[45] = tested on: SK-OV-3 ovarian
[46] = tested on: SN12C renal
[47] = tested on: SNB-19 CNS
[48] = tested on: SNB-75 CNS
[49] = tested on: SR leukemia
[50] = tested on: SW-620 colon
[51] = tested on: T-47D breast
[52] = tested on: TK-10 renal
[53] = tested on: U251 CNS
[54] = tested on: UACC-257 melanoma
[55] = tested on: UACC-62 melanoma
[56] = tested on: UO-31 renal

O=C(NN1C(=O)CSC1c1ccc(F)cc1)C(O)c1ccccc1 (configuration not stated)
GI50 [1]: > 100 µM
TGI [1]: > 100 µM
GI50 [2]: > 100 µM
TGI [2]: > 100 µM
GI50 [3]: 90.9 µM
TGI [3]: > 100 µM
GI50 [4]: 91.5 µM
TGI [4]: > 100 µM
GI50 [5]: > 100 µM
TGI [5]: > 100 µM
GI50 [6]: > 100 µM
TGI [6]: > 100 µM
GI50 [7]: > 100 µM
TGI [7]: > 100 µM
GI50 [8]: > 100 µM
TGI [8]: > 100 µM
GI50 [9]: > 100 µM
TGI [9]: > 100 µM
GI50 [10]: > 100 µM
TGI [10]: > 100 µM
GI50 [11]: > 100 µM
TGI [11]: > 100 µM
GI50 [12]: > 100 µM
TGI [12]: > 100 µM
GI50 [13]: > 100 µM
TGI [13]: > 100 µM
GI50 [14]: 91.5 µM
TGI [14]: > 100 µM
GI50 [15]: > 100 µM
TGI [15]: > 100 µM
GI50 [16]: > 100 µM
TGI [16]: > 100 µM
GI50 [17]: > 100 µM
TGI [17]: > 100 µM
GI50 [18]: > 100 µM
TGI [18]: > 100 µM
GI50 [19]: > 100 µM
TGI [19]: > 100 µM
GI50 [20]: 43.3 µM
TGI [20]: > 100 µM
GI50 [21]: > 100 µM
TGI [21]: > 100 µM
GI50 [22]: > 100 µM
TGI [22]: > 100 µM
GI50 [23]: > 100 µM
TGI [23]: > 100 µM
GI50 [24]: > 100 µM
TGI [24]: > 100 µM
GI50 [25]: 67.6 µM
TGI [25]: > 100 µM
GI50 [26]: > 100 µM
TGI [26]: > 100 µM
GI50 [27]: > 100 µM
TGI [27]: > 100 µM
GI50 [28]: > 100 µM
TGI [28]: > 100 µM
GI50 [29]: 81.8 µM
TGI [29]: > 100 µM
GI50 [30]: 93.6 µM
TGI [30]: > 100 µM
GI50 [31]: > 100 µM
TGI [31]: > 100 µM
GI50 [32]: 79.5 µM
TGI [32]: > 100 µM
GI50 [33]: > 100 µM
TGI [33]: > 100 µM
GI50 [34]: > 100 µM
TGI [34]: > 100 µM
GI50 [35]: > 100 µM
TGI [35]: > 100 µM
GI50 [36]: 76.8 µM
TGI [36]: > 100 µM
GI50 [37]: 44.4 µM
TGI [37]: > 100 µM
GI50 [38]: > 100 µM
TGI [38]: > 100 µM
GI50 [39]: > 100 µM
TGI [39]: > 100 µM
GI50 [40]: > 100 µM
TGI [40]: > 100 µM
GI50 [41]: > 100 µM
TGI [41]: > 100 µM
GI50 [42]: > 100 µM
TGI [42]: > 100 µM
GI50 [43]: > 100 µM
TGI [43]: > 100 µM
GI50 [44]: > 100 µM
TGI [44]: > 100 µM
GI50 [45]: > 100 µM
TGI [45]: > 100 µM
GI50 [46]: > 100 µM
TGI [46]: > 100 µM
GI50 [47]: > 100 µM
TGI [47]: > 100 µM
GI50 [48]: 33.4 µM
TGI [48]: > 100 µM
GI50 [49]: 60.8 µM
TGI [49]: > 100 µM
GI50 [50]: > 100 µM
TGI [50]: > 100 µM
GI50 [51]: 59.5 µM
TGI [51]: > 100 µM
GI50 [52]: > 100 µM
TGI [52]: > 100 µM
GI50 [53]: 97.4 µM
TGI [53]: > 100 µM
GI50 [54]: > 100 µM
TGI [54]: > 100 µM
GI50 [55]: 80.2 µM
TGI [55]: > 100 µM
GI50 [56]: > 100 µM
TGI [56]: > 100 µM
